The subject of one assay is MCF7. Kind of assay: Cytotoxicity against human MCF7 cells assessed as cell viability at 1 uM after 2 days by MTT assay relative to control. It counts as functional. Particulars: MCF7, 48 h, read-out: Activity. Background: Formazan colour is commonly taken as a measure of viable cells.
Turning to `CC(=O)c1cc(-c2ccccc2)cc2cc(-c3ccccc3)[nH]c12`, the viability at 1 µM came out at 98.6%.
On to `COc1ccc(-c2cc(C(C)=O)c3[nH]c(-c4ccccc4)cc3c2)cc1`, for which the viability at 1 µM was 88.8%.
As to `CC(=O)c1cc(/C=C/c2ccccc2)cc2cc(-c3ccccc3)[nH]c12`, the viability at 1 µM turned out to be 93.4%.
Regarding `CC(=O)c1cc(/C=C/c2ccccc2)cc2cc(-c3ccc(F)cc3)[nH]c12`, the viability at 1 µM worked out at 86.9%.
Take `CC(=O)c1cc(-c2ccc(F)cc2)cc2cc(-c3ccccc3)[nH]c12`: the viability at 1 µM is 82.7%.
For `CC(=O)c1cc(/C=C/c2ccc(F)cc2)cc2cc(-c3ccccc3)[nH]c12`, the viability at 1 µM stood at 72.2%.
`COc1ccc(-c2cc3cc(/C=C/c4ccc(F)cc4)cc(C(C)=O)c3[nH]2)cc1`: the viability at 1 µM amounted to 97.3%.

The test system of another assay is MCF7. Kind of assay: Cytotoxicity against human MCF7 cells assessed as cell viability at 10 uM after 2 days by MTT assay relative to control. It counts as functional. Particulars: MCF7, 48 h, read-out: Activity.
Regarding `CC(=O)c1cc(-c2ccccc2)cc2cc(-c3ccccc3)[nH]c12`, the viability at 10 µM was found to be 96.2%.
Regarding `COc1ccc(-c2cc(C(C)=O)c3[nH]c(-c4ccccc4)cc3c2)cc1`, the viability at 10 µM was determined as 49.5%.
With `CC(=O)c1cc(/C=C/c2ccccc2)cc2cc(-c3ccccc3)[nH]c12`, the viability at 10 µM turned out to be 86.5%.
Same read-out and setting: to `CC(=O)c1cc(/C=C/c2ccccc2)cc2cc(-c3ccc(F)cc3)[nH]c12` belongs 69.5%.
For the molecule `CC(=O)c1cc(-c2ccc(F)cc2)cc2cc(-c3ccccc3)[nH]c12`, the viability at 10 µM turned out to be 73.8%.
Take `CC(=O)c1cc(/C=C/c2ccc(F)cc2)cc2cc(-c3ccccc3)[nH]c12`: the viability at 10 µM was found to be 46.5%.
As to `COc1ccc(-c2cc3cc(/C=C/c4ccc(F)cc4)cc(C(C)=O)c3[nH]2)cc1`, the viability at 10 µM is 76.5%.

Another assay has as its system HeLa. Kind of assay: Cytotoxicity against human HeLa cells assessed as reduction in cell viability after 2 days by MTT assay. It counts as functional. Particulars: 48 h, read-out: LC50 (the source's name).
For `CC(=O)c1cc(-c2ccccc2)cc2cc(-c3ccccc3)[nH]c12`, the CC50 is greater than 100 µM.
In the case of `COc1ccc(-c2cc(C(C)=O)c3[nH]c(-c4ccccc4)cc3c2)cc1`, the CC50 worked out at 15.5 µM.
On to `CC(=O)c1cc(/C=C/c2ccccc2)cc2cc(-c3ccccc3)[nH]c12`, for which the CC50 came out at 30.8 µM.
As for `CC(=O)c1cc(/C=C/c2ccccc2)cc2cc(-c3ccc(F)cc3)[nH]c12`, the CC50 is 16.1 µM.
For `CC(=O)c1cc(-c2ccc(F)cc2)cc2cc(-c3ccccc3)[nH]c12`, the CC50 was 38 µM.
Regarding `CC(=O)c1cc(/C=C/c2ccc(F)cc2)cc2cc(-c3ccccc3)[nH]c12`, the CC50 turned out to be 9.26 µM.
Regarding `COc1ccc(-c2cc3cc(/C=C/c4ccc(F)cc4)cc(C(C)=O)c3[nH]2)cc1`, the CC50 was 8.77 µM.

Another assay relates to MCF7. Kind of assay: Cytotoxicity against human MCF7 cells assessed as reduction in cell viability after 2 days by MTT assay. It counts as functional. Particulars: MCF7, 48 h, read-out: LC50 (the source's name).
As for `CC(=O)c1cc(-c2ccccc2)cc2cc(-c3ccccc3)[nH]c12`, the CC50 was greater than 100 µM.
Still for that read-out and setting: to `COc1ccc(-c2cc(C(C)=O)c3[nH]c(-c4ccccc4)cc3c2)cc1` belongs 47.8 µM.
Still for that read-out and setting: to `CC(=O)c1cc(/C=C/c2ccccc2)cc2cc(-c3ccccc3)[nH]c12` belongs greater than 100 µM; to `CC(=O)c1cc(/C=C/c2ccccc2)cc2cc(-c3ccc(F)cc3)[nH]c12`, greater than 100 µM; to `CC(=O)c1cc(-c2ccc(F)cc2)cc2cc(-c3ccccc3)[nH]c12`, greater than 100 µM.
`CC(=O)c1cc(/C=C/c2ccc(F)cc2)cc2cc(-c3ccccc3)[nH]c12`: the CC50 is 18.5 µM.
Turning to `COc1ccc(-c2cc3cc(/C=C/c4ccc(F)cc4)cc(C(C)=O)c3[nH]2)cc1`, the CC50 stood at 83 µM.

In a further assay the test system is HeLa. Kind of assay: Cytotoxicity against human HeLa cells assessed as cell viability at 0.1 uM after 2 days by MTT assay relative to control. It counts as functional. Particulars: 48 h, read-out: Activity.
Consider `CC(=O)c1cc(-c2ccccc2)cc2cc(-c3ccccc3)[nH]c12`, for which the viability at 0.1 µM was 72.3%.
On to `COc1ccc(-c2cc(C(C)=O)c3[nH]c(-c4ccccc4)cc3c2)cc1`, for which the viability at 0.1 µM is 87.9%.
With `CC(=O)c1cc(/C=C/c2ccccc2)cc2cc(-c3ccccc3)[nH]c12`, the viability at 0.1 µM stood at 99%.
As for `CC(=O)c1cc(/C=C/c2ccccc2)cc2cc(-c3ccc(F)cc3)[nH]c12`, the viability at 0.1 µM came out at 82.2%.
`CC(=O)c1cc(-c2ccc(F)cc2)cc2cc(-c3ccccc3)[nH]c12`: the viability at 0.1 µM amounted to 90.3%.
Still for that read-out and setting: under `CC(=O)c1cc(/C=C/c2ccc(F)cc2)cc2cc(-c3ccccc3)[nH]c12` stands 74.2%; under `COc1ccc(-c2cc3cc(/C=C/c4ccc(F)cc4)cc(C(C)=O)c3[nH]2)cc1`, 90.5%.

For the next assay, the system named is MCF7. Kind of assay: Cytotoxicity against human MCF7 cells assessed as cell viability at 100 uM after 2 days by MTT assay relative to control. It counts as functional. Particulars: MCF7, 48 h, read-out: Activity.
Regarding `CC(=O)c1cc(-c2ccccc2)cc2cc(-c3ccccc3)[nH]c12`, the viability at 100 µM is 65.8%.
In the case of `COc1ccc(-c2cc(C(C)=O)c3[nH]c(-c4ccccc4)cc3c2)cc1`, the viability at 100 µM turned out to be 30.8%.
For `CC(=O)c1cc(/C=C/c2ccccc2)cc2cc(-c3ccccc3)[nH]c12`, the viability at 100 µM amounted to 34.1%.
With `CC(=O)c1cc(/C=C/c2ccccc2)cc2cc(-c3ccc(F)cc3)[nH]c12`, the viability at 100 µM turned out to be 50.1%.
In the case of `CC(=O)c1cc(-c2ccc(F)cc2)cc2cc(-c3ccccc3)[nH]c12`, the viability at 100 µM worked out at 36.4%.
Turning to `CC(=O)c1cc(/C=C/c2ccc(F)cc2)cc2cc(-c3ccccc3)[nH]c12`, the viability at 100 µM turned out to be 46.7%.
Regarding `COc1ccc(-c2cc3cc(/C=C/c4ccc(F)cc4)cc(C(C)=O)c3[nH]2)cc1`, the viability at 100 µM amounted to 47.6%.

For another assay, the system named is HeLa. Kind of assay: Cytotoxicity against human HeLa cells assessed as cell viability at 100 uM after 2 days by MTT assay relative to control. Particulars: 48 h, read-out: Activity. It counts as functional.
For the molecule `CC(=O)c1cc(-c2ccccc2)cc2cc(-c3ccccc3)[nH]c12`, the viability at 100 µM turned out to be 51.4%.
Same read-out and setting: under `COc1ccc(-c2cc(C(C)=O)c3[nH]c(-c4ccccc4)cc3c2)cc1` stands 21.1%.
With `CC(=O)c1cc(/C=C/c2ccccc2)cc2cc(-c3ccccc3)[nH]c12`, the viability at 100 µM came to 21.2%.
Take `CC(=O)c1cc(/C=C/c2ccccc2)cc2cc(-c3ccc(F)cc3)[nH]c12`: the viability at 100 µM was 24.2%.
Consider `CC(=O)c1cc(-c2ccc(F)cc2)cc2cc(-c3ccccc3)[nH]c12`, for which the viability at 100 µM is 24.8%.
On to `CC(=O)c1cc(/C=C/c2ccc(F)cc2)cc2cc(-c3ccccc3)[nH]c12`, for which the viability at 100 µM was determined as 23.9%.
Take `COc1ccc(-c2cc3cc(/C=C/c4ccc(F)cc4)cc(C(C)=O)c3[nH]2)cc1`: the viability at 100 µM was 18.9%.

A further assay has as its system HeLa. Kind of assay: Cytotoxicity against human HeLa cells assessed as cell viability at 10 uM after 2 days by MTT assay relative to control. It counts as functional. Particulars: 48 h, read-out: Activity.
As for `CC(=O)c1cc(-c2ccccc2)cc2cc(-c3ccccc3)[nH]c12`, the viability at 10 µM is 60.9%.
In the case of `COc1ccc(-c2cc(C(C)=O)c3[nH]c(-c4ccccc4)cc3c2)cc1`, the viability at 10 µM was determined as 33.9%.
Consider `CC(=O)c1cc(/C=C/c2ccccc2)cc2cc(-c3ccccc3)[nH]c12`, for which the viability at 10 µM was 52.5%.
As for `CC(=O)c1cc(/C=C/c2ccccc2)cc2cc(-c3ccc(F)cc3)[nH]c12`, the viability at 10 µM came out at 51.9%.
Turning to `CC(=O)c1cc(-c2ccc(F)cc2)cc2cc(-c3ccccc3)[nH]c12`, the viability at 10 µM is 55.7%.
On to `CC(=O)c1cc(/C=C/c2ccc(F)cc2)cc2cc(-c3ccccc3)[nH]c12`, for which the viability at 10 µM was found to be 32.8%.
With `COc1ccc(-c2cc3cc(/C=C/c4ccc(F)cc4)cc(C(C)=O)c3[nH]2)cc1`, the viability at 10 µM is 25.8%.

The test system of the next assay is MCF7. Kind of assay: Cytotoxicity against human MCF7 cells assessed as cell viability at 0.1 uM after 2 days by MTT assay relative to control. It counts as functional. Particulars: MCF7, 48 h, read-out: Activity.
Consider `CC(=O)c1cc(-c2ccccc2)cc2cc(-c3ccccc3)[nH]c12`, for which the viability at 0.1 µM amounted to 99.3%.
Still for that read-out and setting: to `COc1ccc(-c2cc(C(C)=O)c3[nH]c(-c4ccccc4)cc3c2)cc1` belongs 99.2%; to `CC(=O)c1cc(/C=C/c2ccccc2)cc2cc(-c3ccccc3)[nH]c12`, 99.5%; to `CC(=O)c1cc(/C=C/c2ccccc2)cc2cc(-c3ccc(F)cc3)[nH]c12`, 98.4%.
Same read-out and setting: to `CC(=O)c1cc(-c2ccc(F)cc2)cc2cc(-c3ccccc3)[nH]c12` belongs 98.3%; to `CC(=O)c1cc(/C=C/c2ccc(F)cc2)cc2cc(-c3ccccc3)[nH]c12`, 89.7%.
As to `COc1ccc(-c2cc3cc(/C=C/c4ccc(F)cc4)cc(C(C)=O)c3[nH]2)cc1`, the viability at 0.1 µM was found to be 97.2%.

The next assay has as its system HeLa. Kind of assay: Cytotoxicity against human HeLa cells assessed as cell viability at 1 uM after 2 days by MTT assay relative to control. Particulars: 48 h, read-out: Activity. It counts as functional.
For the molecule `CC(=O)c1cc(-c2ccccc2)cc2cc(-c3ccccc3)[nH]c12`, the viability at 1 µM turned out to be 65.8%.
`COc1ccc(-c2cc(C(C)=O)c3[nH]c(-c4ccccc4)cc3c2)cc1`: the viability at 1 µM is 73.1%.
For `CC(=O)c1cc(/C=C/c2ccccc2)cc2cc(-c3ccccc3)[nH]c12`, the viability at 1 µM amounted to 79.8%.
Still for that read-out and setting: under `CC(=O)c1cc(/C=C/c2ccccc2)cc2cc(-c3ccc(F)cc3)[nH]c12` stands 60.5%.
Still for that read-out and setting: to `CC(=O)c1cc(-c2ccc(F)cc2)cc2cc(-c3ccccc3)[nH]c12` belongs 82.7%; to `CC(=O)c1cc(/C=C/c2ccc(F)cc2)cc2cc(-c3ccccc3)[nH]c12`, 70%; to `COc1ccc(-c2cc3cc(/C=C/c4ccc(F)cc4)cc(C(C)=O)c3[nH]2)cc1`, 67%.

The values are drawn from ChEMBL document CHEMBL4477257, “In vitro cytotoxicity of novel 2,5,7-tricarbo-substituted indoles derived from 2-amino-5-bromo-3-iodoacetophenone” (2016).
